Values after ≈ are worked out from the molar mass of the structure shown. Active and inactive are the calls of the source. The calls are words filed in the database; no cut-off is given here.
Tests used:
[1] = test system: Staphylococcus aureus; assay: Antibacterial activity against exponential growth culture of methicillin-sensitive Staphylococcus aureus ATCC 29213 grown for 2 hrs in MHBc by broth microdilution method; format: functional
[2] = test system: Staphylococcus aureus; assay: Bactericidal activity against high inoculum density stationary phase culture of methicillin-sensitive Staphylococcus aureus ATCC 29213 grown for >17 hrs in MHBc at 100 ug/mL after 24 hrs by time kill study; format: functional, organism-based
[3] = test system: Staphylococcus aureus; assay: Bactericidal activity against high inoculum density exponential growth culture of methicillin-sensitive Staphylococcus aureus ATCC 29213 grown for 2 hrs in MHBc at 10 ug/mL after 24 hrs by time kill study; format: functional, organism-based
[4] = test system: Staphylococcus aureus; assay: Bactericidal activity against CCCP-induced metabolically arrested exponential growth culture of methicillin-sensitive Staphylococcus aureus ATCC 29213 grown for 2 hrs in MHBc at 10 ug/mL after 24 hrs by time kill study; format: functional, organism-based
[5] = test system: Staphylococcus aureus; assay: Bactericidal activity against erythromycin-induced metabolically arrested exponential growth culture of methicillin-sensitive Staphylococcus aureus ATCC 29213 grown for 2 hrs in MHBc at 10 ug/mL after 24 hrs by time kill study; format: functional, organism-based
[6] = test system: Staphylococcus aureus; assay: Bactericidal activity against 1 hr cold-arrested exponential growth culture of methicillin-sensitive Staphylococcus aureus ATCC 29213 grown for 2 hrs in MHBc at 2 ug/mL incubated at 0 degC by time kill study; format: functional, organism-based
[7] = test system: Staphylococcus aureus; assay: Bactericidal activity against 24 hrs cold-arrested exponential growth culture of methicillin-sensitive Staphylococcus aureus ATCC 29213 grown for 2 hrs in MHBc at 2 ug/mL incubated at 37 degC after 2 hrs by time kill study; format: functional, organism-based
[8] = test system: Staphylococcus aureus; assay: Bactericidal activity against high inoculum density stationary phase culture of methicillin-sensitive Staphylococcus aureus ATCC 29213 grown for >17 hrs in MHBc assessed as effect on viability at 100 ug/mL after 4 hrs by time kill study; format: functional, organism-based
[9] = test system: Staphylococcus aureus; assay: Bactericidal activity against exponential growth culture of methicillin-sensitive Staphylococcus aureus ATCC 29213 grown for 2 hrs in MHBc assessed as logarithmic reduction in CFU at 2 ug/ml within 60 mins by time kill study; format: functional
[10] = test system: Staphylococcus aureus; assay: Bactericidal activity against high inoculum density stationary phase culture of methicillin-sensitive Staphylococcus aureus ATCC 29213 grown for >17 hrs in MHBc by time kill study; format: functional, organism-based
[11] = test system: Staphylococcus aureus; assay: Bactericidal activity against stationary phase culture of methicillin-sensitive Staphylococcus aureus ATCC 29213 grown for 17 hrs in MHBc at 32 ug/ml after 24 hrs by time kill study; format: functional, organism-based
[12] = test system: Staphylococcus aureus; assay: Bactericidal activity against high inoculum density stationary phase culture of methicillin-sensitive Staphylococcus aureus ATCC 29213 grown for >17 hrs in MHBc assessed as log reduction in CFU per millimiter at 100 ug/mL after 8 hrs by time kill study; format: functional
[13] = test system: Staphylococcus aureus; assay: Bactericidal activity against high inoculum density stationary phase culture of methicillin-sensitive Staphylococcus aureus ATCC 29213 grown for >17 hrs in MHBc at 10 ug/mL after 24 hrs by time kill study; format: functional, organism-based
[14] = test system: Staphylococcus aureus; assay: Bactericidal activity against high inoculum density exponential growth culture of methicillin-sensitive Staphylococcus aureus ATCC 29213 grown for 2 hrs in MHBc assessed as log reduction in cell density at 100 ug/mL after 1 hr by time kill study; format: functional, organism-based
[15] = test system: Staphylococcus aureus; assay: Bactericidal activity against high inoculum density stationary phase culture of methicillin-sensitive Staphylococcus aureus ATCC 29213 grown for >17 hrs in MHBc at 100 ug/mL after prolonged treatment period by time kill study; format: functional, organism-based
[16] = test system: Staphylococcus aureus; assay: Bactericidal activity against stationary phase culture of methicillin-sensitive Staphylococcus aureus ATCC 29213 grown for >17 hrs in MHBc followed by dilution in nutrient depleted MHBc assessed as logarithmic reduction in CFU per millimiter at 10 ug/mL after 24 hrs by time kill study; format: functional
[17] = test system: Staphylococcus aureus; assay: Bactericidal activity against stationary phase culture of methicillin-sensitive Staphylococcus aureus ATCC 29213 grown for >17 hrs in MHBc followed by dilution in nutrient depleted MHBc assessed as logarithmic reduction in CFU per millimiter at 100 ug/mL after 24 hrs by time kill study; format: functional, organism-based

Molecule	Activity [2]	MIC ([1]; ATCC 29213, 2 h) [µg/mL]	Activity [3]	Activity [4]	Activity [5]	Activity [6]	Activity [7]	other results
GENTAMICIN	Active	–	–	–	–	–	–	MIC [1]: 0.25 µg/mL
O=C(O)c1cn(C2CC2)c2cc(N3CCNCC3)c(F)cc2c1=O [CIPROFLOXACIN]	–	0.5 (≈ 1.51 µM)	Active	inactive	inactive	inactive	Active	–
CN[C@H](CC(C)C)C(=O)N[C@H]1C(=O)N[C@@H](CC(N)=O)C(=O)N[C@H]2C(=O)N[C@H]3C(=O)N[C@H](C(=O)N[C@H](C(=O)O)c4cc(O)cc(O)c4-c4cc3ccc4O)[C@H](O)c3ccc(c(Cl)c3)Oc3cc2cc(c3O[C@@H]2O[C@H](CO)[C@@H](O)[C@H](O)[C@H]2O[C@H]2C[C@](C)(N)[C@H](O)[C@H](C)O2)Oc2ccc(cc2Cl)[C@H]1O	inactive	–	–	–	–	–	–	Activity [8]: inactive
CCOc1ccc2ccccc2c1C(=O)N[C@@H]1C(=O)N2[C@@H]1SC(C)(C)[C@@H]2C(=O)O [NAFCILLIN]	–	0.125 (≈ 0.302 µM)	–	–	–	inactive	Active	–
CCCCCCCCCC(=O)N[C@@H](Cc1c[nH]c2ccccc12)C(=O)N[C@H](CC(N)=O)C(=O)N[C@@H](CC(=O)O)C(=O)N[C@@H]1C(=O)NCC(=O)N[C@@H](CCCN)C(=O)N[C@@H](CC(=O)O)C(=O)N[C@H](C)C(=O)N[C@@H](CC(=O)O)C(=O)NCC(=O)N[C@H](CO)C(=O)N[C@@H]([C@H](C)CC(=O)O)C(=O)N[C@@H](CC(=O)c2ccccc2N)C(=O)O[C@@H]1C	–	0.5 (≈ 0.309 µM)	Active	Active	Active	Active	Active	Activity [9]: 3; Activity [10]: Dose-dependent effect; Activity [11]: Active; Activity [12]: 3; Activity [13]: inactive; Activity [14]: Active; Activity [15]: Active; Activity [16]: >1; Activity [17]: Active

From ChEMBL document CHEMBL1151439, “Bactericidal action of daptomycin against stationary-phase and nondividing Staphylococcus aureus cells” (2007)
